Laboratory results as given in ChEMBL document CHEMBL5036330, “Discovery of 8,9-seco-ent-Kaurane Diterpenoids as Potential Leads for the Treatment of Triple-Negative Breast Cancer” (J Med Chem, 2021).
Activity calls are given as the source filed them. No cut-off for these calls is given here.

Experiments:
[1] = system: MDA-MB-231; experiment: Inhibition of PI3K phosphorylation in human MDA-MB-231 cells measured at 1 to 5 uM after 24 hrs by Western blot analysis; type: cell-based; details: dose 1-5 µM
[2] = system: MDA-MB-231; experiment: Induction of autophagy in human MDA-MB-231 cells assessed as cleaved PARP at 1 to 5 uM incubated for 24 hrs in presence of chloroquine by Western blot analysis relative to control; type: functional, cell-based; details: dose 1-5 µM
[3] = system: MDA-MB-468; experiment: Effect on Akt expression in human MDA-MB-468 cells measured at 1 to 5 uM after 24 hrs by Western blot analysis; type: functional, cell-based; details: dose 1-5 µM
[4] = system: MDA-MB-231; experiment: Induction of cell cycle arrest in human MDA-MB-231 cells assessed as accumulation of cells at S phase at 5 uM measured after 24 hrs by flow cytometry (reference value: 32.2%); type: functional
[5] = system: MDA-MB-231; experiment: Induction of cell cycle arrest in human MDA-MB-231 cells assessed as accumulation of cells at S phase at 1 uM measured after 24 hrs by flow cytometry (reference value: 32.2%); type: functional
[6] = system: MDA-MB-468; experiment: Antitumor activity against human MDA-MB-468 cells xenografted in NOD/SCID mouse assessed as decrease in Ki67 expression in tumor tissue at 5 to 10 mg/kg, ip treated for 33 days by immunohistochemical analysis; type: functional, organism-based; details: dose 5-10 mg/kg, time 33.0 day
[7] = system: MDA-MB-468; experiment: Induction of apoptosis in human MDA-MB-468 cells assessed as late apoptotic cells at 5 uM measured after 24 hrs by Annexin V/Propidium iodide stain based Flow cytometry (reference value: 3.98%); type: functional
[8] = system: MDA-MB-468; experiment: Induction of cell cycle arrest in human MDA-MB-468 cells assessed as accumulation of cells at G1 phase at 2 uM measured after 24 hrs by flow cytometry (reference value: 26.6%); type: functional
[9] = system: MDA-MB-468; experiment: Induction of apoptosis in human MDA-MB-468 cells assessed as early apoptotic cells at 1 uM measured after 24 hrs by Annexin V/Propidium iodide stain based Flow cytometry (reference value: 7.98%); type: functional
[10] = system: MDA-MB-468; experiment: Antitumor activity against human MDA-MB-468 cells xenografted in NOD/SCID mouse assessed as increase in TUNEL expression in tumor tissue at 5 to 10 mg/kg, ip treated for 33 days by immunohistochemical analysis; type: functional, organism-based; details: dose 5-10 mg/kg, time 33.0 day
[11] = system: MDA-MB-468; experiment: Effect on mTOR expression in human MDA-MB-468 cells measured at 1 to 5 uM after 24 hrs by Western blot analysis; type: functional, cell-based; details: dose 1-5 µM
[12] = system: MDA-MB-468; experiment: Antitumor activity against human MDA-MB-468 cells xenografted in NOD/SCID mouse assessed as increase in LC3B expression in tumor tissue at 5 to 10 mg/kg, ip treated for 33 days by immunohistochemical analysis; type: functional, organism-based; details: dose 5-10 mg/kg, time 33.0 day
[13] = system: MDA-MB-468; experiment: Effect on PI3K expression in human MDA-MB-468 cells measured at 1 to 5 uM after 24 hrs by Western blot analysis; type: functional, cell-based; details: dose 1-5 µM
[14] = system: MDA-MB-231; experiment: Induction of apoptosis in human MDA-MB-231 cells assessed as early apoptotic cells at 1 uM measured after 24 hrs by Annexin V/Propidium iodide stain based Flow cytometry (reference value: 3.34%); type: functional
[15] = system: MDA-MB-468; experiment: Anticancer activity in human MDA-MB-468 cells xenografted mouse model assessed as reduction in tumor weight at 10 mg/kg, ip treated for 33 days; type: functional; details: MDA-MB-468, ip, 792 h, time 33 day
[16] = system: MDA-MB-468; experiment: Anticancer activity in human MDA-MB-468 cells xenografted mouse model assessed as tumor growth inhibition at 10 mg/kg, ip treated for 33 days relative to control; type: functional, organism-based; details: time 33.0 day
[17] = system: MDA-MB-231; experiment: Induction of apoptosis in human MDA-MB-231 cells assessed as late apoptotic cells at 5 uM measured after 24 hrs by Annexin V/Propidium iodide stain based Flow cytometry (reference value: 2.78%); type: functional
[18] = system: MDA-MB-231; experiment: Effect on mTOR expression in human MDA-MB-231 cells measured at 1 to 5 uM after 24 hrs by Western blot analysis; type: functional, cell-based; details: dose 1-5 µM
[19] = system: L02; experiment: Cytotoxicity against human L02 cells assessed as reduction in cell viability incubated for 96 hrs by MTT method; type: cell-based; details: L02, 96 h
[20] = system: MDA-MB-468; experiment: Induction of cell cycle arrest in human MDA-MB-468 cells assessed as accumulation of cells at G1 phase at 1 uM measured after 24 hrs by flow cytometry (reference value: 26.6%); type: functional
[21] = system: MDA-MB-231; experiment: Induction of apoptosis in human MDA-MB-231 cells assessed as late apoptotic cells at 1 uM measured after 24 hrs by Annexin V/Propidium iodide stain based Flow cytometry (reference value: 2.78%); type: functional
[22] = system: MDA-MB-468; experiment: Induction of apoptosis in human MDA-MB-468 cells assessed as late apoptotic cells at 2 uM measured after 24 hrs by Annexin V/Propidium iodide stain based Flow cytometry (reference value: 3.98%); type: functional
[23] = Toxicity in NOD/SCID mouse assessed as change in body weight at 5 to 10 mg/kg, ip treated for 33 days; type: organism-based; details: in vivo, 792 h, dose 5-10 mg/kg, time 33 day
[24] = system: HEK293; experiment: Cytotoxicity against HEK-293 cells assessed as reduction in cell viability incubated for 96 hrs by MTT method; type: cell-based; details: Homo sapiens, HEK293, 96 h
[25] = system: MDA-MB-231; experiment: Induction of apoptosis in human MDA-MB-231 cells assessed as late apoptotic cells at 2 uM measured after 24 hrs by Annexin V/Propidium iodide stain based Flow cytometry (reference value: 2.78%); type: functional
[26] = system: MDA-MB-231; experiment: Induction of autophagy in human MDA-MB-231 cells assessed as increase in ATG7 expression at 1 to 5 uM incubated for 24 hrs by Western blot analysis; type: functional, cell-based; details: dose 1-5 µM
[27] = system: MDA-MB-231; experiment: Induction of apoptosis in human MDA-MB-231 cells assessed as early apoptotic cells at 5 uM measured after 24 hrs by Annexin V/Propidium iodide stain based Flow cytometry (reference value: 3.34%); type: functional
[28] = system: MDA-MB-231; experiment: Induction of cell cycle arrest in human MDA-MB-231 cells assessed as accumulation of cells at G2 phase at 1 uM measured after 24 hrs by flow cytometry (reference value: 20.2%); type: functional
[29] = system: MDA-MB-468; experiment: Induction of autophagy in human MDA-MB-468 cells assessed as increase in ATG5 expression at 1 to 5 uM incubated for 24 hrs by Western blot analysis; type: functional, cell-based; details: dose 1-5 µM
[30] = molecular target: RAC-alpha serine/threonine-protein kinase (Homo sapiens) (UniProt P31749); experiment: Binding affinity to Akt1 in human MDA-MB-231 cells assessed as shifted melting curve at 2 uM by CETSA assay; type: cell-based
Sequence of RAC-alpha serine/threonine-protein kinase (Homo sapiens) (P31749 whole entry): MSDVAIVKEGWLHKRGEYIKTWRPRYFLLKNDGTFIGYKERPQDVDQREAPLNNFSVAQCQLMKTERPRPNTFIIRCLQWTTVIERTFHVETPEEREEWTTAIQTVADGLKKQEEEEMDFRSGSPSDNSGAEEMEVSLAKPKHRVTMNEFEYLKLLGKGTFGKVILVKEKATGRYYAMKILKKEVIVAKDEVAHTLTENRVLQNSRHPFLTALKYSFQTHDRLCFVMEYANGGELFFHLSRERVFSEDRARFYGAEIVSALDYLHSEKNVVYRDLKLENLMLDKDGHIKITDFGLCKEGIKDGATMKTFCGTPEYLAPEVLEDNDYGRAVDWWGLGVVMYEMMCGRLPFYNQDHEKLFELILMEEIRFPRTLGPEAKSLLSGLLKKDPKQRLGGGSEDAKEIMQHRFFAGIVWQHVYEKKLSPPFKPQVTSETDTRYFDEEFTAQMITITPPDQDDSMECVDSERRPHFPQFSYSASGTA

[31] = system: MDA-MB-468; experiment: Induction of apoptosis in human MDA-MB-468 cells assessed as increase in cleaved caspase 3 at 1 to 5 uM measured after 24 hrs by Western blot analysis; type: functional, cell-based; details: dose 1-5 µM
[32] = Toxicity in NOD/SCID mouse assessed as cytotoxicity in kidney at 10 mg/kg, ip treated for 33 days by H&E staining analysis; type: organism-based; details: in vivo, 792 h, time 33 day
[33] = system: MDA-MB-468; experiment: Induction of cell cycle arrest in human MDA-MB-468 cells assessed as accumulation of cells at G2 phase at 5 uM measured after 24 hrs by flow cytometry (reference value: 26.5%); type: functional
[34] = system: MDA-MB-468; experiment: Induction of cell cycle arrest in human MDA-MB-468 cells assessed as accumulation of cells at G2 phase at 2 uM measured after 24 hrs by flow cytometry (reference value: 26.5%); type: functional

## C=C1C(=O)C2=C[C@H]1CCC(=O)[C@]1(C)[C@H](O)CCC(C)(C)[C@H]1C[C@H]2O
[1]
  inhibition: inactive
[2]
  Activity: inactive
[3]
  Activity: inactive
[4]
  Activity: 35.1%
[5]
  Activity: 37%
[6]
  Activity: Active
[7]
  Activity: 25.9%
[8]
  Activity: 14.3%
[9]
  Activity: 29.7%
[10]
  Activity: Active
[11]
  Activity: inactive
[12]
  Activity: Active
[13]
  Activity: inactive
[14]
  Activity: 6.59%
[15]
  inhibition in vivo at 10 mg/kg: 58%
[16]
  Activity: Active
[17]
  Activity: 28%
[18]
  Activity: inactive
[19]
  IC50: > 5000 nM
[20]
  Activity: 14.3%
[21]
  Activity: 11.2%
[22]
  Activity: 12.5%
[23]
  Activity: Non-Toxic
[24]
  IC50: 1960 nM
[25]
  Activity: 13.6%
[26]
  Activity: Active
[27]
  Activity: 18%
[28]
  Activity: 29.2%
[29]
  Activity: Active
[30]
  Activity: Active
[31]
  Activity: Active
[32]
  Activity: Non-Toxic
[33]
  Activity: 59.6%
[34]
  Activity: 58.1%
